Reference: ChEMBL document CHEMBL3792342, “Synthesis and biological evaluation of 2-arylimino-3-pyridin-thiazolineone derivatives as antibacterial agents” (Bioorg Med Chem Lett, 2016)
≈ marks a conversion by molar mass, not a printed value.

Tests used:
[1] = Cytotoxicity against African green monkey Vero cells; type: cell-based; settings: chlorocebus sabaeus
[2] = test system: Staphylococcus epidermidis; experiment: Antibacterial activity against Staphylococcus epidermidis ATCC 35984 by broth micro-dilution method; type: functional; settings: RP62A
[3] = Hemolytic activity in human erythrocytes at 200 uM; type: ADME, cell-based; settings: erythrocyte
Staphylococcus aureus = experiment: Antibacterial activity against methicillin-resistant Staphylococcus aureus 8282 by broth micro-dilution method; type: functional
[4] = test system: Staphylococcus epidermidis; experiment: Bactericidal activity against Staphylococcus epidermidis ATCC 35984; type: functional; settings: RP62A
Escherichia coli = experiment: Antibacterial activity against Escherichia coli ATCC 25922 by broth micro-dilution method; type: functional

Structure (SMILES)	CC50 [1]	MIC [2]	Activity [3]	MIC (Staphylococcus aureus)	MBC [4]	MIC (Escherichia coli)
O=C(O)c1cccc(-c2ccc(/C=C3\S/C(=N\c4ccccc4)N(c4ccc(Cl)cc4)C3=O)o2)c1	> 200 µM	6.25 µM (≈ 3.13 µg/mL)	Non-toxic	6.25 µM (≈ 3.13 µg/mL)	50 µM (≈ 25 µg/mL)	> 200 µM
O=C(O)c1cccc(-c2ccc(/C=C3\S/C(=N\c4ccccc4)N(c4ccc(F)cc4)C3=O)s2)c1	> 200 µM	6.25 µM (≈ 3.13 µg/mL)	Non-toxic	12.5 µM (≈ 6.26 µg/mL)	25 µM (≈ 12.5 µg/mL)	> 200 µM
O=C(O)c1cccc(-c2ccc(/C=C3\S/C(=N\c4ccccc4)N(c4ccc(F)cn4)C3=O)o2)c1	> 200 µM	12.5 µM (≈ 6.07 µg/mL)	Non-toxic	12.5 µM (≈ 6.07 µg/mL)	> 200 µM	> 200 µM
O=C(O)c1cccc(-c2ccc(/C=C3\S/C(=N\c4ccccc4)N(c4ccc(Cl)cc4)C3=O)s2)c1	> 200 µM	1.56 µM (≈ 0.807 µg/mL)	Non-toxic	3.13 µM (≈ 1.62 µg/mL)	25 µM (≈ 12.9 µg/mL)	> 200 µM
Cc1ncccc1N1C(=O)/C(=C/c2ccc(-c3cccc(C(=O)O)c3)s2)S/C1=N\c1ccccc1	> 200 µM	12.5 µM (≈ 6.22 µg/mL)	Non-toxic	12.5 µM (≈ 6.22 µg/mL)	100 µM (≈ 49.8 µg/mL)	> 200 µM
O=C(O)c1cccc(-c2ccc(/C=C3\S/C(=N\c4ccc(Cl)cc4)N(c4ccc(Cl)cc4)C3=O)o2)c1	> 200 µM	25 µM (≈ 13.4 µg/mL)	Non-toxic	25 µM (≈ 13.4 µg/mL)	> 200 µM	> 200 µM
O=C(O)c1cccc(-c2ccc(/C=C3\S/C(=N\c4ccc(F)cc4)N(c4ccccn4)C3=O)o2)c1	> 200 µM	12.5 µM (≈ 6.07 µg/mL)	Non-toxic	12.5 µM (≈ 6.07 µg/mL)	> 200 µM	> 200 µM
O=C(O)c1cccc(-c2ccc(/C=C3\S/C(=N\c4ccccc4)N(c4cccc(F)n4)C3=O)o2)c1	> 200 µM	6.25 µM (≈ 3.03 µg/mL)	Non-toxic	6.25 µM (≈ 3.03 µg/mL)	100 µM (≈ 48.5 µg/mL)	> 200 µM
CCc1ccccc1/N=C1\S/C(=C\c2ccc(OCC(=O)O)c(OC)c2)C(=O)N1c1ccccc1CC	50 µM	25 µM (≈ 12.9 µg/mL)	Non-toxic	25 µM (≈ 12.9 µg/mL)	100 µM (≈ 51.7 µg/mL)	> 200 µM
O=C(O)c1cccc(-c2ccc(/C=C3\S/C(=N\c4ccccc4)N(c4cccnc4[N+](=O)[O-])C3=O)s2)c1	> 200 µM	1.56 µM (≈ 0.825 µg/mL)	Non-toxic	3.13 µM (≈ 1.65 µg/mL)	12.6 µM (≈ 6.66 µg/mL)	> 200 µM
O=C(O)c1cccc(-c2ccc(/C=C3\S/C(=N\c4ccc(Cl)cc4)N(c4ncccc4F)C3=O)o2)c1	> 200 µM	12.5 µM (≈ 6.5 µg/mL)	Non-toxic	12.5 µM (≈ 6.5 µg/mL)	> 200 µM	> 200 µM
O=C(O)c1cccc(-c2ccc(/C=C3\S/C(=N\c4ccccc4)N(c4cccnc4Cl)C3=O)o2)c1	> 200 µM	3.13 µM (≈ 1.57 µg/mL)	Non-toxic	6.25 µM (≈ 3.14 µg/mL)	50 µM (≈ 25.1 µg/mL)	> 200 µM
COc1cccc(OC)c1C(=O)N[C@@H]1C(=O)N2[C@@H]1SC(C)(C)[C@@H]2C(=O)O [METHICILLIN]	> 200 µM	3.13 µM (≈ 1.19 µg/mL)	Non-toxic	100 µM (≈ 38 µg/mL)	> 200 µM	> 200 µM
O=C(O)c1cccc(-c2ccc(/C=C3\S/C(=N\c4ccccc4)N(c4ncccc4F)C3=O)o2)c1	> 200 µM	12.5 µM (≈ 6.07 µg/mL)	Non-toxic	12.5 µM (≈ 6.07 µg/mL)	> 200 µM	> 200 µM
O=C(O)c1cccc(-c2ccc(/C=C3\S/C(=N\c4ccc(Cl)cc4)N(c4ccccn4)C3=O)o2)c1	> 200 µM	6.25 µM (≈ 3.14 µg/mL)	Non-toxic	6.25 µM (≈ 3.14 µg/mL)	50 µM (≈ 25.1 µg/mL)	> 200 µM
O=C(O)c1cccc(-c2ccc(/C=C3\S/C(=N\c4ccc(Cl)cc4)N(c4ccc(Cl)cc4)C3=O)s2)c1	> 200 µM	12.5 µM (≈ 6.89 µg/mL)	Non-toxic	25 µM (≈ 13.8 µg/mL)	> 200 µM	> 200 µM
O=C(O)c1cccc(-c2ccc(/C=C3\S/C(=N\c4ccccc4)N(c4ccc(F)cc4)C3=O)o2)c1	> 200 µM	25 µM (≈ 12.1 µg/mL)	Non-toxic	25 µM (≈ 12.1 µg/mL)	50 µM (≈ 24.2 µg/mL)	> 200 µM
O=C(O)c1cccc(-c2ccc(/C=C3\S/C(=N\c4ccc(F)cc4)N(c4ccc(F)cc4)C3=O)o2)c1	> 200 µM	100 µM (≈ 50.2 µg/mL)	Non-toxic	100 µM (≈ 50.2 µg/mL)	> 200 µM	> 200 µM
O=C(O)c1cccc(-c2ccc(/C=C3\S/C(=N\c4ccccc4)N(c4cccnc4Cl)C3=O)s2)c1	> 200 µM	1.56 µM (≈ 0.808 µg/mL)	Non-toxic	3.13 µM (≈ 1.62 µg/mL)	6.3 µM (≈ 3.26 µg/mL)	> 200 µM
O=C(O)c1cccc(-c2ccc(/C=C3\S/C(=N\c4ccc(Cl)cc4)N(c4ccccc4)C3=O)o2)c1	> 200 µM	6.25 µM (≈ 3.13 µg/mL)	Non-toxic	6.25 µM (≈ 3.13 µg/mL)	100 µM (≈ 50.1 µg/mL)	> 200 µM
O=C(O)c1cccc(-c2ccc(/C=C3\S/C(=N\c4ccccc4)N(c4ccc(F)cn4)C3=O)s2)c1	> 200 µM	3.13 µM (≈ 1.57 µg/mL)	Non-toxic	3.13 µM (≈ 1.57 µg/mL)	50 µM (≈ 25.1 µg/mL)	> 200 µM
O=C(O)c1cccc(-c2ccc(/C=C3\S/C(=N\c4ccc(F)cc4)N(c4ccc(F)cc4)C3=O)s2)c1	> 200 µM	6.25 µM (≈ 3.24 µg/mL)	Non-toxic	6.25 µM (≈ 3.24 µg/mL)	100 µM (≈ 51.9 µg/mL)	> 200 µM
